Experiments:
SK-BR-3 cells = experiment: Determination of cell growth inhibition (crystal violet staining method); type: cell-based; details: Homo sapiens; breast cancer cells SK-BR-3, 72 hours culture with test substance
Experimental: Cell growth was assayed by a crystal violet staining method. SK-BR-3 cells (HTB-30) purchased from American Type Culture Collection were inoculated at a concentration of 5,000 cells/well to a 96-well plate (#353075, BD Biosciences). After culture at 37° C. for 24 hours in a 5% CO2 incubator, each test substance was added thereto, and the cells were further cultured for 72 hours. A 25% glutaraldehyde solution (#17025-25, Nacalai Tesque, Inc.) was added thereto at a concentration of 20 μL/well per 200 μL of the medium, and the plate was incubated at room temperature for 20 minutes to fix the cells. The plate was washed with water and dried. Then, a solution containing 0.05% crystal violet (#038-17792, Wako Pure Chemical Industries, Ltd.) and 20% methanol was added thereto at a concentration of 100 μL/well, and the plate was incubated at room temperature for 20 minutes to stain the cells. The plate was washed with water and dried. A mixed solution of 0.05 M NaH2PO4 and ethanol (mixed in equal amounts) was added thereto at a concentration of 100 μL/well. Absorbance was measured at 540 nm using a microplate reader (MTP-450, Corona Electric Co., Ltd.) and used as an index for the number of cells per well. Percent inhibition (%) of cell growth by each compound of the present invention was determined according to the formula shown below with the absorbance of no drug addition group as a control. […] Percent inhibition (%)=(C−T)/C×100, wherein T: Absorbance of well with test substance addition C: Absorbance of well without test substance addition.

[1] = target: human HSP90 alpha protein (N-terminal, amino acids 2 to 236) (Homo sapiens (Human), UniProt P07900); experiment: Determination of HSP90-binding activity (AlphaScreen competitive assay with biotinylated geldanamycin); details: inhibition of binding of biotinylated geldanamycin to purified HSP90 N-terminal protein, read-out: HSP-binding activity IC50
Experimental: First, a purified HSP90 solution was prepared as follows: a human HSP90 alpha gene (NCBI Reference Sequence accession no. NM-005348) region corresponding to amino acids 2 to 236 of human HSP90 alpha protein (NCBI Reference Sequence accession no. NP-005339; full length: 732 amino acids) was inserted to pET-19b (Novagen; Merck KGaA) to construct a plasmid pET-HS[…] for expression of the HSP90 N-terminal protein having a His-tag at the N-terminus. E. coli (BL21(DE3), Stratagene Corp.) was transformed with pET-HS[…] and then cultured at 37° C. for 4 hours in the presence of 0.5 mM isopropyl-beta-D-thiogalactopyranoside (Sigma-Aldrich Corp.). The collected E. coli was suspended in a lysis buffer (50 mM Tris-HCl (pH 7.5), 200 mM NaCl) and sonicated. The sonicated cell solution was centrifuged (40,000×g, 20 minutes), and the supernatant was used as a crude extract. This crude extract was fractionated using Ni Sepharose High Performance (GE Healthcare Japan Corp.) chromatography and HiLoad 26/60 Superdex 75 pg (GE Healthcare Japan Corp.). Then, a fraction of HSP90 protein concentrates was prepared in a solution containing 50 mM Tris-HCl (pH 7.5) and 20% glycerol as a purified HSP90 solution. The purified HSP90 solution was divided and stored at -80° C. until use. HSP90-binding activity was determined by an AlphaScreen competitive assay system. […] After reaction at room temperature for 2 hours, biotinylated geldanamycin was added thereto at a concentration of 40 nM/well and further reacted for 1 hour. Detection mix (20 mM HEPES-KOH (pH 7.5), 0.5% BSA, 0.04 mg/mL Nickel Chelate Acceptor beads, 0.04 mg/mL Streptavidin-coated Donor beads) (#6760619C, PerkinElmer, Inc.) was added to each well in an amount equal to the amount of the reaction solution and reacted at room temperature for 1 hour in the dark. Then, fluorescence intensity was measured using Multilabel Plate Reader EnVision (PerkinElmer, Inc.). Percent inhibition (%) of the binding of biotinylated geldanamycin by each compound of the present invention was determined according to the formula shown below with the fluorescence signal of no test substance addition group as a control. […] Percent inhibition (%)=(C-T)/C×100, wherein T: Signal of well with test substance addition C: Signal of well without test substance addition.

Row | IC50 (SK-BR-3 cells) [nM] | IC50 [1] [nM] | SMILES
1 | 280 | 100 | NC(=O)c1ccc(-c2nccc3c(-c4cncc(CO)c4)cccc23)cc1NC1CCC(O)CC1 (stereo not shown) [Example 17, 2-(4-Hydroxycyclohexylamino)-4-(5-(5-(hydroxymethyl)pyridin-3-yl)isoquinolin-1-yl)benzamide]
2 | 880 | 2690 | CC(C)(C)OC(=O)NCCc1cncc(-c2cccc3c(-c4ccc(C(N)=O)c(NC5CCC(O)CC5)c4)nccc23)c1 (stereo not shown) [Example 19, Tert-butyl 2-(5-(1-(4-carbamoyl-3-(4-hydroxycyclohexylamino)phenyl)isoquinolin-5-yl)pyridin-3-yl)ethylcarbamate]
3 | 690 | 650 | COc1cncc(-c2cccc3c(-c4ccc(C(N)=O)c(NC5CCC(O)CC5)c4)nccc23)c1 (stereo not shown) [Example 24, 2-(4-Hydroxycyclohexylamino)-4-(5-(5-methoxypyridin-3-yl)isoquinolin-1-yl)benzamide]
4 | 110 | 130 | NC(=O)c1ccc(-c2nccc3c(-n4cnc(-c5ccncc5)c4)cccc23)cc1NC1CCC(O)CC1 (stereo not shown) [Example 25, 2-(4-Hydroxycyclohexylamino)-4-(5-(4-(pyridin-4-yl)-1H-imidazol-1-yl)isoquinolin-1-yl)benzamide]
5 | 540 | 150 | CC(=O)Nc1cncc(-c2cccc3c(-c4ccc(C(N)=O)c(NC5CCC(O)CC5)c4)nccc23)c1 (stereo not shown) [Example 27, 4-(5-(5-Acetamidepyridin-3-yl)isoquinolin-1-yl)-2-(4-hydroxycyclohexylamino)benzamide]
6 | 500 | 230 | NC(=O)c1ccc(-c2nccc3c(-c4cncc(NC(=O)CO)c4)cccc23)cc1NC1CCC(O)CC1 (stereo not shown) [Example 28, 4-(5-(5-(2-Hydroxyacetamide)pyridin-3-yl)isoquinolin-1-yl)-2-(4-hydroxycyclohexylamino)benzamide]
7 | 580 | 800 | NC(=O)c1ccc(-c2nc(CN3CCOCC3)cc3c(-c4cnc5ccccc5c4)cccc23)cc1NC1CCC(O)CC1 (stereo not shown) [Example 31, 2-(4-Hydroxycyclohexylamino)-4-(3-(morpholinomethyl)-5-(quinolin-3-yl)isoquinolin-1-yl)benzamide]
8 | 20 | 80 | NC(=O)c1ccc(-c2nccc3c(-n4cnc(-c5cccnc5)c4)cccc23)cc1NC1CCC(O)CC1 (stereo not shown) [Example 32, 2-(4-Hydroxycyclohexylamino)-4-(5-(4-(pyridin-3-yl)-1H-imidazol-1-yl)isoquinolin-1-yl)benzamide]
9 | 50 | 140 | CNc1cncc(-c2cccc3c(-c4ccc(C(N)=O)c(NC5CCC(O)CC5)c4)nccc23)c1 (stereo not shown) [Example 34, 2-(4-Hydroxycyclohexylamino)-4-(5-(5-(methylamino)pyridin-3-yl)isoquinolin-1-yl)benzamide]
10 | 460 | 1490 | CCCNc1cncc(-c2cccc3c(-c4ccc(C(N)=O)c(NC5CCC(O)CC5)c4)nccc23)c1 (stereo not shown) [Example 35, 2-(4-Hydroxycyclohexylamino)-4-(5-(5-(propylamino)pyridin-3-yl)isoquinolin-1-yl)benzamide]
11 | 60 | 370 | CN(CCO)CNC(=O)c1ccc(-c2nccc3c(-c4cnc5ccccc5c4)cccc23)cc1NC1CCC(O)CC1 (stereo not shown) [Example 37, 2-(4-Hydroxycyclohexylamino)-N-(((2-hydroxyethyl)(methyl)amino)methyl)-4-(5-(quinolin-3-yl)isoquinolin-1-yl)benzamide]
12 | 40 | 980 | CN(C)CNC(=O)c1ccc(-c2nccc3c(-c4cnc5ccccc5c4)cccc23)cc1NC1CCC(O)CC1 (stereo not shown) [Example 38, N-((dimethylamino)methyl)-2-(4-hydroxycyclohexylamino)-4-(5-(quinolin-3-yl)isoquinolin-1-yl)benzamide]
13 | 10 | 130 | NC(=O)c1ccc(-c2nccc3c(-c4cnc5cc[nH]c5c4)cccc23)cc1NC1CCC(O)CC1 (stereo not shown) [Example 39, 4-(5-(1H-Pyrrolo[3,2-b]pyridin-6-yl)isoquinolin-1-yl)-2-(4-hydroxycyclohexylamino)benzamide]
14 | 540 | 150 | Cc1nc2ncc(-c3cccc4c(-c5ccc(C(N)=O)c(NC6CCC(O)CC6)c5)nccc34)cc2[nH]1 (stereo not shown) [Example 40, 2-(4-Hydroxycyclohexylamino)-4-(5-(2-methyl-1H-imidazo[4,5-b]pyridin-6-yl)isoquinolin-1-yl)benzamide]
15 | 1270 | 390 | CCc1nc2ncc(-c3cccc4c(-c5ccc(C(N)=O)c(NC6CCC(O)CC6)c5)nccc34)cc2[nH]1 (stereo not shown) [Example 41, 4-(5-(2-Ethyl-1H-imidazo[4,5-b]pyridin-6-yl)isoquinolin-1-yl)-2-(4-hydroxycyclohexylamino)benzamide]
16 | 1100 | 690 | NC(=O)c1ccc(-c2nccc3c(-c4cncnc4)cccc23)cc1NC1CCC(O)CC1 (stereo not shown) [Example 43, 2-(4-Hydroxycyclohexylamino)-4-(5-(pyrimidin-5-yl)isoquinolin-1-yl)benzamide]
17 | 30 | 220 | NC(=O)c1ccc(-c2nccc3c(-c4cnc5cc(C=O)ccc5c4)cccc23)cc1NC1CCC(O)CC1 (stereo not shown) [Example 45, 4-(5-(7-Formylquinolin-3-yl)isoquinolin-1-yl)-2-(4-hydroxycyclohexylamino)benzamide]
18 | 20 | 70 | Cn1cc(-c2cn(-c3cccc4c(-c5ccc(C(N)=O)c(NC6CCC(O)CC6)c5)nccc34)cn2)cn1 (stereo not shown) [Example 48, 2-(4-Hydroxycyclohexylamino)-4-(5-(4-(1-methyl-1H-pyrazol-4-yl)-1H-imidazol-1-yl)isoquinolin-1-yl)benzamide]
19 | 400 | 1560 | NC(=O)c1ccc(-c2nccc3c(-c4cnc5ccc(CN6CCOCC6)cc5c4)cccc23)cc1NC1CCC(O)CC1 (stereo not shown) [Example 49, 2-(4-Hydroxycyclohexylamino)-4-(5-(6-(morpholinomethyl)quinolin-3-yl)isoquinolin-1-yl)benzamide]
20 | 40 | 120 | CC(C)n1cc(-c2cn(-c3cccc4c(-c5ccc(C(N)=O)c(NC6CCC(O)CC6)c5)nccc34)cn2)cn1 (stereo not shown) [Example 53, 2-(4-Hydroxycyclohexylamino)-4-(5-(4-(1-isopropyl-1H-pyrazol-4-yl)-1H-imidazol-1-yl)isoquinolin-1-yl)benzamide]
21 | 470 | 370 | CNC(=O)c1ccc(-c2cccc3c(-c4ccc(C(N)=O)c(NC5CCC(O)CC5)c4)nccc23)cn1 (stereo not shown) [Example 56, 5-(1-(4-Carbamoyl-3-(4-hydroxycyclohexylamino)phenyl)isoquinolin-5-yl)-N-methylpicolinamide]
22 | 1440 | 250 | CNc1cc(-c2nccc3c(-n4cnc(-c5cnn(C)c5)c4)cccc23)ccc1C(N)=O [Example 58, 4-(5-(4-(1-Methyl-1H-pyrazol-4-yl)-1H-imidazol-1-yl)isoquinolin-1-yl)-2-(methylamino)benzamide]
23 | 90 | 100 | Cn1cc(-c2cn(-c3cccc4c(-c5ccc(C(N)=O)c(NCC6CCCO6)c5)nccc34)cn2)cn1 (stereo not shown) [Example 59, 4-(5-(4-(1-Methyl-1H-pyrazol-4-yl)-1H-imidazol-1-yl)isoquinolin-1-yl)-2-((tetrahydrofuran-2-yl)methylamino)benzamide]
